Like-named read-outs stand apart in the source and are kept apart here.
Experiments:
[1] = test system: Straub tail induced by morphine sulfate in mice; experiment: Narcotic antagonist test (mouse anti-Straub tail test against morphine); type: in vivo, mouse (female CF1 S); conditions: vs 30 mg/kg morphine sulfate i.p.
Protocol: This property is the basis of a mouse test for narcotic antagonists.
Female CF1 S mice (fasted 17-21 hrs.), 5 per dose, were injected orally or subcutaneously with test drug at 0.67, 2, 6, 18, 54 and 162 mg/kg or other appropriate doses in 0.20 ml 1% Methocel® per mouse. Five minutes later, 30 mg/kg of morphine sulfate in 0.20 ml 1% Methocel® per mouse was given intraperitoneally. Starting ten minutes later, the mice were observed continuously for 5 minutes for evidence of Straub tail. Prevention of Straub tail during this observation period was taken as indication of narcotic antagonist ability.

[2] = test system: writhing syndrome induced by phenylquinone in mice; experiment: Analgesic test (phenylquinone writhing, anti-PQW); type: in vivo, mouse (female white mice); conditions: mouse; oral; phenylquinone i.p.; read-out: EFFECT ED50 Anti-PQW (Oral)
Protocol: A standard procedure for detecting and comparing the analgesic activity of compounds in this series for which there is good correlation with human efficacy is the standard phenylquinone writhing test modified from Siegmund, et al., Proc. Soc. Exp. Biol. Med., 95, 729 (1957). A test compound suspended in 1% Methocel® was given orally to fasted (17-21 hours) female white mice, 5-20 animals per double blind test. Aqueous phenylquinone (0.1% phenyl-p-benzoquinone) was injected intraperitoneally at 24 minutes later using 0.20 ml per mouse. […] The effective analgesic dose for 50% of the mice (ED50) was calculated by the moving average method of Thompson, W. R., Bact. Rev., 11, 115-145 (1947).

[3] = test system: Straub tail reaction in mice; experiment: Narcotic test (Straub tail reaction); type: in vivo, mouse (CF1 S female); conditions: 0.4 h, read-out: EFFECT ED50 Straub-tail (Oral)
Protocol: Narcotic analgesics which have only agonist activity produce in mice an erection and arching of the tail (90° or more) which is referable to spinal cord stimulation. This Straub tail reaction is not produced by other analgesics, including the narcotic antagonists.
The method used was modified from Shemano, I., and Wendel, H., Tox. Appl. Pharm., 6, 334-9 (1964). CF1 S female mice (18-21 g), 10-20 mice per dose, were […] with log scaled doses of analgesic in 1% aqueous methylcellulose. A positive Straub tail response was recorded if a tail was erected 90° or more for 5 seconds at any time within 24 minutes after dosing. A quantal Straub tail ED50 was calculated by the moving average method [Thompson, W. R., Bact. Rev., 11, 115-145 (1947)].

[4] = chronic oral therapy; cited from earlier work
[5] = test system: Straub tail induced by morphine in mice; conditions: mouse; cited from earlier work
[6] = sc, read-out: EFFECT ED50 Anti-Straub Tail (s.c.)
[7] = mouse, oral, within 24 minutes after dosing

| Structure (SMILES) | ED50 [1, 6] [mg/kg] | ED50 [2] [mg/kg] | ED50 [3, 7] [mg/kg] | abstinence of opiate addicts [4] | ED50 ([1]; oral, read-out: EFFECT ED50 Anti-Straub Tail (Oral)) [mg/kg] | ED50 ([3]; Mus musculus, po) [mg/kg] | prevention of Straub tail induced by morphine [5] |
| --- | --- | --- | --- | --- | --- | --- | --- |
| COc1ccc2c3c1O[C@H]1C4(CCC5(F)C(C2)N(C)CCC315)OCCO4 (stereo partly shown) [Example 10] | > 135 | 5 | > 135 | – | – | – | – |
| COc1ccc2c3c1O[C@H]1C4(CCC5(F)C(C2)N(CC2CC2)CCC315)OCCO4 (stereo partly shown) [Example 1] | 1.7 | 42 | > 135 | – | – | – | – |
| Oc1ccc2c3c1O[C@H]1[C@@H](O)CCC4(F)C(C2)N(CC2CCC2)CCC314 (stereo partly drawn) [Example 6, 17-(Cyclobutylmethyl)-4,5-epoxy-14-fluoro-morphinan-3,6-diol (α-isomer)] | 0.41 | 30.4 | > 135 | – | – | – | – |
| O=C1CC[C@@]2(O)[C@H]3Cc4ccc(O)c5c4[C@@]2(CCN3CC2CC2)[C@H]1O5 [naltrexone] | – | – | – | remain abstinent | – | – | – |
| COc1ccc2c3c1O[C@H]1C(=O)CCC4(F)C(C2)N(C)CCC314 (stereo partly shown) [Example 11] | > 135 | 6.3 | 45 | – | – | – | – |
| COc1ccc2c3c1O[C@H]1C(=O)CCC4(F)C(C2)N(CC2CCC2)CCC314 (stereo partly shown) [Example 9] | 6 | 27.6 | > 135 | – | – | – | – |
| O=C1CC[C@@]2(F)[C@H]3Cc4ccc(O)c5c4[C@@]2(CCN3CC2CC2)C1O5 (stereo partly shown) [Example 3, 17-(Cyclopropylmethyl)-4,5-epoxy-14-fluoro-3-hydroxymorphinan-6-one] | 0.01 | > 135 | – | – | 0.09 | > 135 | – |
| C=CCN1CC[C@]23c4c5ccc(O)c4O[C@H]2[C@@H](O)C=C[C@H]3[C@H]1C5 [nalorphine] | – | – | – | – | – | – | prevent the induction of Straub tail |
| CN1CC[C@]23c4c5ccc(O)c4OC2C(=O)CC[C@@]3(F)[C@H]1C5 (stereo partly shown) [Example 7, 17-Methyl-14-fluoro-3-hydroxy-4,5-epoxymorphinan-6-one] | > 81 | 2.4 | – | – | – | 18.7 | – |
| COc1ccc2c3c1OC1C(=O)CC[C@@]4(F)[C@@H](C2)N(CC2CC2)CC[C@]314 (stereo partly shown) [Example 2, 17-(Cyclopropylmethyl)-4,5-epoxy-14-fluoro-3-methoxymorphinan-6-one] | 0.33 | > 135 | – | – | – | > 135 | – |
| COc1ccc2c3c1O[C@H]1C4(CCC5(F)C(C2)N(CC2CCC2)CCC315)OCCO4 (stereo partly shown) [Example 8] | > 135 | 11.1 | > 135 | – | – | – | – |
| C=CCN1CC[C@]23c4c5ccc(O)c4O[C@H]2C(=O)CC[C@@]3(O)[C@H]1C5 [Naloxone] | – | – | – | – | – | – | prevent the induction of Straub tail |
